ChEMBL document CHEMBL1255475, “Mutant prevention concentrations of four carbapenems against gram-negative rods” (2010)
In brackets after ≈: the same amount, converted by molar mass.

How the values were obtained:
Pseudomonas aeruginosa [1] = experiment: Ratio of mutant prevention concentration to minimum Inhibitory concentration for Pseudomonas aeruginosa P365; assay type: functional
Acinetobacter baumannii [2] = experiment: Ratio of mutant prevention concentration to minimum Inhibitory concentration for Acinetobacter baumannii A864; assay type: functional
Pseudomonas aeruginosa [3] = experiment: Ratio of mutant prevention concentration to minimum Inhibitory concentration for Pseudomonas aeruginosa P338; assay type: functional
Pseudomonas aeruginosa [4] = experiment: Ratio of mutant prevention concentration to minimum Inhibitory concentration for Pseudomonas aeruginosa P356; assay type: functional
Acinetobacter baumannii [5] = experiment: Ratio of mutant prevention concentration to minimum Inhibitory concentration for Acinetobacter baumannii A851; assay type: functional
Acinetobacter baumannii [6] = experiment: Ratio of mutant prevention concentration to minimum Inhibitory concentration for Acinetobacter baumannii A849; assay type: functional
Pseudomonas aeruginosa [7] = experiment: Ratio of mutant prevention concentration to minimum Inhibitory concentration for Pseudomonas aeruginosa P341; assay type: functional
Acinetobacter baumannii [8] = experiment: Ratio of mutant prevention concentration to minimum Inhibitory concentration for Acinetobacter baumannii A896; assay type: functional
Acinetobacter baumannii [9] = experiment: Ratio of mutant prevention concentration to minimum Inhibitory concentration for Acinetobacter baumannii A884; assay type: functional
Pseudomonas aeruginosa [10] = experiment: Ratio of mutant prevention concentration to minimum Inhibitory concentration for Pseudomonas aeruginosa P326; assay type: functional
Acinetobacter baumannii [11] = experiment: Ratio of mutant prevention concentration to minimum Inhibitory concentration for Acinetobacter baumannii A890; assay type: functional
Acinetobacter baumannii [12] = experiment: Ratio of mutant prevention concentration to minimum Inhibitory concentration for Acinetobacter baumannii A903; assay type: functional
Acinetobacter baumannii [13] = experiment: Ratio of mutant prevention concentration to minimum Inhibitory concentration for Acinetobacter baumannii A867; assay type: functional
Acinetobacter baumannii [14] = experiment: Ratio of mutant prevention concentration to minimum Inhibitory concentration for Acinetobacter baumannii A850; assay type: functional
Pseudomonas aeruginosa [15] = experiment: Ratio of mutant prevention concentration to minimum Inhibitory concentration for Pseudomonas aeruginosa P358; assay type: functional
Acinetobacter baumannii [16] = experiment: Ratio of mutant prevention concentration to minimum Inhibitory concentration for Acinetobacter baumannii A897; assay type: functional
Acinetobacter baumannii [17] = experiment: Ratio of mutant prevention concentration to minimum Inhibitory concentration for Acinetobacter baumannii A901; assay type: functional
Acinetobacter baumannii [18] = experiment: Ratio of mutant prevention concentration to minimum Inhibitory concentration for Acinetobacter baumannii A865; assay type: functional
Pseudomonas aeruginosa [19] = experiment: Ratio of mutant prevention concentration to minimum Inhibitory concentration for Pseudomonas aeruginosa P332; assay type: functional
Pseudomonas aeruginosa [20] = experiment: Ratio of mutant prevention concentration to minimum Inhibitory concentration for Pseudomonas aeruginosa P353; assay type: functional
Acinetobacter baumannii [21] = experiment: Ratio of mutant prevention concentration to minimum Inhibitory concentration for Acinetobacter baumannii A848; assay type: functional
Acinetobacter baumannii [22] = experiment: Ratio of mutant prevention concentration to minimum Inhibitory concentration for Acinetobacter baumannii A910; assay type: functional
Pseudomonas aeruginosa [23] = experiment: Ratio of mutant prevention concentration to minimum Inhibitory concentration for Pseudomonas aeruginosa P349; assay type: functional
Escherichia coli [24] = experiment: Antibacterial activity against beta-lactamase-positive ESBL-positive Escherichia coli E456 after 24 hrs by agar dilution method; details: E456, 24 h
Klebsiella pneumoniae [25] = experiment: Antibacterial activity against beta-lactamase-negative Klebsiella pneumoniae E418 after 24 hrs by agar dilution method; assay type: functional; details: E418, 24 h
Escherichia coli [26] = experiment: Antibacterial activity against beta-lactamase-negative Escherichia coli E345 after 24 hrs by agar dilution method; details: E345, 24 h
Klebsiella pneumoniae [27] = experiment: Antibacterial activity against beta-lactamase-negative Klebsiella pneumoniae E417 after 24 hrs by agar dilution method; assay type: functional; details: E417, 24 h
Escherichia coli [28] = experiment: Antibacterial activity against beta-lactamase-positive ESBL-positive Escherichia coli E459 after 24 hrs by agar dilution method; details: E459, 24 h
Pseudomonas aeruginosa [29] = experiment: Antibacterial activity against Pseudomonas aeruginosa P322 after 24 hrs by agar dilution method; details: P322, 24 h
Pseudomonas aeruginosa [30] = experiment: Antibacterial activity against Pseudomonas aeruginosa P335 after 24 hrs by agar dilution method; details: P335, 24 h
Pseudomonas aeruginosa [31] = experiment: Antibacterial activity against Pseudomonas aeruginosa P338 after 24 hrs by agar dilution method; details: P338, 24 h
Acinetobacter baumannii [32] = experiment: Antibacterial activity against Acinetobacter baumannii A891 after 24 hrs by agar dilution method; assay type: functional; details: A891, 24 h
Pseudomonas aeruginosa [33] = experiment: Antibacterial activity against Pseudomonas aeruginosa P352 after 24 hrs by agar dilution method; assay type: functional; details: P352, 24 h
Pseudomonas aeruginosa [34] = experiment: Antibacterial activity against Pseudomonas aeruginosa P373 after 24 hrs by agar dilution method; details: P373, 24 h
Escherichia coli [35] = experiment: Antibacterial activity against beta-lactamase-negative Escherichia coli E348 after 24 hrs by agar dilution method; details: E348, 24 h
Escherichia coli [36] = experiment: Antibacterial activity against beta-lactamase-positive ESBL-positive Escherichia coli E446 after 24 hrs by agar dilution method; details: E446, 24 h
Klebsiella pneumoniae [37] = experiment: Antibacterial activity against beta-lactamase-negative Klebsiella pneumoniae E420 after 24 hrs by agar dilution method; assay type: functional; details: E420, 24 h
Acinetobacter baumannii [38] = experiment: Antibacterial activity against Acinetobacter baumannii A903 after 24 hrs by agar dilution method; assay type: functional; details: A903, 24 h
Klebsiella pneumoniae [39] = experiment: Antibacterial activity against beta-lactamase-positive ESBL-negative Klebsiella pneumoniae E474 after 24 hrs by agar dilution method; assay type: functional; details: E474, 24 h
Klebsiella pneumoniae [40] = experiment: Antibacterial activity against beta-lactamase-positive ESBL-positive Klebsiella pneumoniae E478 after 24 hrs by agar dilution method; assay type: functional; details: E478, 24 h
Escherichia coli [41] = experiment: Antibacterial activity against beta-lactamase-negative Escherichia coli E424 after 24 hrs by agar dilution method; details: E424, 24 h
Pseudomonas aeruginosa [42] = experiment: Antibacterial activity against Pseudomonas aeruginosa P358 after 24 hrs by agar dilution method; assay type: functional; details: P358, 24 h
Pseudomonas aeruginosa [43] = experiment: Antibacterial activity against Pseudomonas aeruginosa P323 after 24 hrs by agar dilution method; details: P323, 24 h
Klebsiella pneumoniae [44] = experiment: Antibacterial activity against beta-lactamase-positive ESBL-negative Klebsiella pneumoniae E473 after 24 hrs by agar dilution method; assay type: functional; details: E473, 24 h
Acinetobacter baumannii [45] = experiment: Antibacterial activity against Acinetobacter baumannii A867 after 24 hrs by agar dilution method; assay type: functional; details: A867, 24 h
Escherichia coli [46] = experiment: Antibacterial activity against beta-lactamase-negative Escherichia coli E425 after 24 hrs by agar dilution method; details: E425, 24 h
Klebsiella pneumoniae [47] = experiment: Antibacterial activity against beta-lactamase-positive ESBL-negative Klebsiella pneumoniae E479 after 24 hrs by agar dilution method; assay type: functional; details: E479, 24 h
Escherichia coli [48] = experiment: Antibacterial activity against beta-lactamase-negative Escherichia coli E408 after 24 hrs by agar dilution method; details: E408, 24 h
Pseudomonas aeruginosa [49] = experiment: Antibacterial activity against Pseudomonas aeruginosa P353 after 24 hrs by agar dilution method; assay type: functional; details: P353, 24 h
Klebsiella pneumoniae [50] = experiment: Antibacterial activity against beta-lactamase-negative Klebsiella pneumoniae E362 after 24 hrs by agar dilution method; assay type: functional; details: E362, 24 h
Pseudomonas aeruginosa [51] = experiment: Antibacterial activity against Pseudomonas aeruginosa P365 after 24 hrs by agar dilution method; details: P365, 24 h
Pseudomonas aeruginosa [52] = experiment: Antibacterial activity against Pseudomonas aeruginosa P319 after 24 hrs by agar dilution method; assay type: functional; details: P319, 24 h
Acinetobacter baumannii [53] = experiment: Antibacterial activity against Acinetobacter baumannii A908 after 24 hrs by agar dilution method; assay type: functional; details: A908, 24 h
Pseudomonas aeruginosa [54] = experiment: Antibacterial activity against Pseudomonas aeruginosa P341 after 24 hrs by agar dilution method; details: P341, 24 h
Acinetobacter baumannii [55] = experiment: Antibacterial activity against Acinetobacter baumannii A850 after 24 hrs by agar dilution method; assay type: functional; details: A850, 24 h

Structure (SMILES): C[C@@H](O)[C@H]1C(=O)N2C(C(=O)O)=C(S[C@@H]3CN[C@H](CNS(N)(=O)=O)C3)[C@H](C)[C@H]12 [DORIPENEM]
- Ratio (Pseudomonas aeruginosa [1]): 16
- Ratio (Acinetobacter baumannii [2]): 8
- Ratio (Pseudomonas aeruginosa [3]): 16
- Ratio (Pseudomonas aeruginosa [4]): >16
- Ratio (Acinetobacter baumannii [5]): 4
- Ratio (Acinetobacter baumannii [6]): 4
- Ratio (Pseudomonas aeruginosa [7]): 16
- Ratio (Acinetobacter baumannii [8]): 2
- Ratio (Acinetobacter baumannii [9]): 2
- Ratio (Pseudomonas aeruginosa [10]): 4
- Ratio (Acinetobacter baumannii [11]): 4
- Ratio (Acinetobacter baumannii [12]): 4
- Ratio (Acinetobacter baumannii [13]): 16
- Ratio (Acinetobacter baumannii [14]): 2
- Ratio (Pseudomonas aeruginosa [15]): 8
- Ratio (Acinetobacter baumannii [16]): 2
- Ratio (Acinetobacter baumannii [17]): 2
- Ratio (Acinetobacter baumannii [18]): 8
- Ratio (Pseudomonas aeruginosa [19]): >16
- Ratio (Pseudomonas aeruginosa [20]): 4
- Ratio (Acinetobacter baumannii [21]): 2
- Ratio (Acinetobacter baumannii [22]): 2
- Ratio (Pseudomonas aeruginosa [23]): 16

Structure (SMILES): C[C@@H](O)[C@H]1C(=O)N2C(C(=O)O)=C(SCCNC=N)C[C@H]12 [IMIPENEM ANHYDROUS]
- MIC (Escherichia coli [24]): 0.125 µg/mL (≈ 0.418 µM)
- MIC (Klebsiella pneumoniae [25]): 2 µg/mL (≈ 6.68 µM)
- MIC (Escherichia coli [26]): 0.25 µg/mL (≈ 0.835 µM)
- MIC (Klebsiella pneumoniae [27]): 0.5 µg/mL (≈ 1.67 µM)
- MIC (Escherichia coli [28]): 0.25 µg/mL (≈ 0.835 µM)
- MIC (Pseudomonas aeruginosa [29]): 4 µg/mL (≈ 13.4 µM)
- MIC (Pseudomonas aeruginosa [30]): 1 µg/mL (≈ 3.34 µM)
- MIC (Pseudomonas aeruginosa [31]): 2 µg/mL (≈ 6.68 µM)
- MIC (Acinetobacter baumannii [32]): 0.5 µg/mL (≈ 1.67 µM)
- MIC (Pseudomonas aeruginosa [33]): 8 µg/mL (≈ 26.7 µM)
- MIC (Pseudomonas aeruginosa [34]): 2 µg/mL (≈ 6.68 µM)
- MIC (Escherichia coli [35]): 0.125 µg/mL (≈ 0.418 µM)
- MIC (Escherichia coli [36]): 0.25 µg/mL (≈ 0.835 µM)
- MIC (Klebsiella pneumoniae [37]): 0.25 µg/mL (≈ 0.835 µM)
- MIC (Acinetobacter baumannii [38]): 0.5 µg/mL (≈ 1.67 µM)
- MIC (Klebsiella pneumoniae [39]): 8 µg/mL (≈ 26.7 µM)
- MIC (Klebsiella pneumoniae [40]): 4 µg/mL (≈ 13.4 µM)
- MIC (Escherichia coli [41]): 0.125 µg/mL (≈ 0.418 µM)
- MIC (Pseudomonas aeruginosa [42]): 32 µg/mL (≈ 107 µM)
- MIC (Pseudomonas aeruginosa [43]): 2 µg/mL (≈ 6.68 µM)
- MIC (Klebsiella pneumoniae [44]): 4 µg/mL (≈ 13.4 µM)
- MIC (Acinetobacter baumannii [45]): 4 µg/mL (≈ 13.4 µM)
- MIC (Escherichia coli [46]): 0.25 µg/mL (≈ 0.835 µM)
- MIC (Klebsiella pneumoniae [47]): 8 µg/mL (≈ 26.7 µM)
- MIC (Escherichia coli [48]): 0.125 µg/mL (≈ 0.418 µM)
- MIC (Pseudomonas aeruginosa [49]): 8 µg/mL (≈ 26.7 µM)
- MIC (Klebsiella pneumoniae [50]): 0.5 µg/mL (≈ 1.67 µM)
- MIC (Pseudomonas aeruginosa [51]): 2 µg/mL (≈ 6.68 µM)
- MIC (Pseudomonas aeruginosa [52]): 8 µg/mL (≈ 26.7 µM)
- MIC (Acinetobacter baumannii [53]): 0.25 µg/mL (≈ 0.835 µM)
- MIC (Pseudomonas aeruginosa [54]): 4 µg/mL (≈ 13.4 µM)
- MIC (Acinetobacter baumannii [55]): 4 µg/mL (≈ 13.4 µM)
